Test results as given in patent publication US4882322A, “3β,17β-hydroxy-substituted steroids and related steroidal compounds” (Merrell Dow Pharmaceuticals Inc., priority 1988, dated 1989).
Like-named read-outs stand apart in the source and are kept apart here.

Columns and labels:
[1] = test system: Aromatase Activity of JAr Tumor Xenografts in Nude Mice; assay: In vivo inhibition of aromatase activity of JAr tumor xenografts in nude mice; design: species or system human (JAr tumor cells) in athymic nude mice; conditions: vehicle PEG-200, 6 hr post-treatment
Method: (§1) In evaluating the inhibition of aromatase activity, the compounds of the present invention were tested according to the folowing procedure adapted from Johnston et al., J Steroid Biochem., Vol. 20, No. 6A, 1221 (1984) and Johnston, Steroids, Vol. 50, No. 1-3, 105 (1987). Athymic nude mice were subcutaneously injected with 1.5×10^6 human choriocarcinoma trophoblast (JAr) cells, which develop tumor masses of about 1 g in 10 days. Tumor aromatase activity was determined in vitro by measuring the ^3 H2 O resulting from the stereospecific release of 1-β ^3 H from 1-[^3 H]-androstenedione. Cytosol (800×g) from 35 mg of tumor was the source for both aromatase and 3β-steroid dehydrogenase (SDH):isomerase activity. The test compounds were incubated for varying intervals (0-3 hrs) with aromatase prior to the addition of 34 pmol 1-[3H]-androstenedione to start a 30 min aromatase activity assay. When 10-(2-propynyl)-19-norandrost-5-ene-3β,17β-diol was tested in vitro by this procedure the following results were observed:
The compound 10-(2-propynyl)-19-norandrost-5-ene-3β,17β-diol was also evaluated in vivo by treating nude mice with trophoblast tumors. At 6 hr post-treatment intervals, tumor aromatase activity was determined in an in vitro assay as discussed above. The vehicle for oral dosing was PEG-200.

JAr Tumor Aromatase = target: T1, JAr Tumor Aromatase (Homo sapiens, UniProt P11511); assay: Time-dependent JAr tumor aromatase activity (in vitro inhibition; 3H2O release from 1-[3H]-androstenedione, cytosol of JAr tumor); type: biochemical; conditions: for inhibition at 5 µM: Conc. 5 μM; for inhibition at 5 µM / inhibition at 25 µM: read-out: Relative Percent Inhibition; for inhibition at 25 µM: Conc. 25 μM
T1 construct: from 35 mg of tumor was the source for both aromatase; from tissue; host or cells: Tumor grown from subcutaneously injected human JAr choriocarcinoma cells in athymic nude mice; 800×g supernatant ('cytosol')
T1 sequence (P11511 1-503): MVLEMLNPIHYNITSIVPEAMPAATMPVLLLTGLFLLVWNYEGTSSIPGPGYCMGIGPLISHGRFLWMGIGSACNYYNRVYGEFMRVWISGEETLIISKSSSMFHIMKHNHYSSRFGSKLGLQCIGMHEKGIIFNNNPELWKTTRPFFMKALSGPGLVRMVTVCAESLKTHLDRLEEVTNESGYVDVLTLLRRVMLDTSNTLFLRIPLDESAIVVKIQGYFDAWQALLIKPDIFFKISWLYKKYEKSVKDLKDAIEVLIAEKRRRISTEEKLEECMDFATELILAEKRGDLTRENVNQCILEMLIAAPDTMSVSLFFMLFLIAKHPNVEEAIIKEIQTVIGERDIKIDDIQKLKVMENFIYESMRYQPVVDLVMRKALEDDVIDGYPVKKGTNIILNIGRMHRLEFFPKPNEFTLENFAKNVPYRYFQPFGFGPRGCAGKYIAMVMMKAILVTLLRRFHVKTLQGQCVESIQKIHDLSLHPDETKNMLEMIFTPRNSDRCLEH
Method: The aromatase inhibitory action of the compounds of the present invention may be determined using a radioenzymatic assay. An aromatase enzyme preparation is employed from the microsomal fraction isolated from human placenta. Stereospecific elimination of 1β and 2β tritium labels from androgen substrates such as testosterone or androstenedione, and the subsequent appearance of tritated water, is utilized to measure the rate of enzyme reaction during in vitro incubations.
as §1, with “observed: […]” for “observed:”

C#CC[C@]12CC[C@H](O)CC1=CC[C@@H]1[C@@H]2CC[C@]2(C)[C@@H](O)CC[C@@H]12 [10-(2-propynyl)-19-norandrost-5-ene-3β,17β-diol]
Relative % Inhibition 6 hr Post-treatment ([1]; 7 mg/kg oral): 5.9 ± 3.0% | Relative % Inhibition 6 hr Post-treatment ([1]; 10 mg/kg oral): 27.5 ± 1.5% | Relative % Inhibition 6 hr Post-treatment ([1]; 30 mg/kg oral): 53.4 ± 7.8% | inhibition at 5 µM (JAr Tumor Aromatase; preincubation time 0 hr): 15.1% | inhibition at 5 µM (JAr Tumor Aromatase; preincubation time 1 hr): 0% | inhibition at 5 µM (JAr Tumor Aromatase; preincubation time 2 hr): 66.9% | inhibition at 5 µM (JAr Tumor Aromatase; preincubation time 3 hr): 71.9% | inhibition at 25 µM (JAr Tumor Aromatase; preincubation time 0 hr): 33.4% | inhibition at 25 µM (JAr Tumor Aromatase; preincubation time 1 hr): 0% | inhibition at 25 µM (JAr Tumor Aromatase; preincubation time 2 hr): 86.5% | inhibition at 25 µM (JAr Tumor Aromatase; preincubation time 3 hr): 84.9% | type of aromatase inhibition (biphase response) (JAr Tumor Aromatase; preincubation 0-3 hr, after enzymatic processing to a more reactive component): time-dependent inhibition of aromatase
